From PubChem BioAssay AID248 (DTP/NCI, 2004)
Where “and” joins values, the source holds several entries; their conditions need not be identical. Equal entries are not always repeated. Inconclusive results and toxic doses are left out. Cut-off read from the data, not from the text of the source: active = T/C of 150% or more; inactive = T/C below 125%.

Test system: L1210 leukemia ip in BDF1 mice, survival T/C
Test: NCI In Vivo Anticancer Drug Screen. Data for tumor model L1210 Leukemia (intraperitoneal) in B6D2F1 (BDF1) mice
Settings: endpoint: mean survival time, higher = longer survival
Method in brief: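 In this screen, tumor-bearing mice given compound are compared to those given vehicle, and their survival values are reported as a treated-to-control quotient.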

[1] = dose: 100.0 mg/kg/injection, schedule: Q01DX001 (ip), vehicle: saline
[2] = dose: 200.0 mg/kg/injection, schedule: Q01DX001 (ip), vehicle: saline
[3] = dose: 400.0 mg/kg/injection, schedule: Q01DX001 (ip), vehicle: saline
[4] = dose: 75.0 mg/kg/injection, schedule: Q01DX001 (ip), vehicle: saline
[5] = dose: 50.0 mg/kg/injection, schedule: Q01DX009 (ip), vehicle: Klucel (hydroxypropylcellulose) (HPC)
[6] = dose: 100.0 mg/kg/injection, schedule: Q01DX009 (ip), vehicle: Klucel (hydroxypropylcellulose) (HPC)
[7] = dose: 100.0 mg/kg/injection, schedule: Q01DX009 (ip), vehicle: saline with Tween-80
[8] = dose: 200.0 mg/kg/injection, schedule: Q01DX009 (ip), vehicle: saline with Tween-80
[9] = dose: 100.0 mg/kg/injection, schedule: Q01DX001 (ip), vehicle: carboxymethylcellulose (CMC)
[10] = dose: 200.0 mg/kg/injection, schedule: Q01DX001 (ip), vehicle: carboxymethylcellulose (CMC)
[11] = dose: 400.0 mg/kg/injection, schedule: Q01DX001 (ip), vehicle: carboxymethylcellulose (CMC)

Measured: T/C

CC(=O)OC1CCC2(C)C(=CCC3C2CCC2(C)C3CC3C(c4ccccc4Br)=NN(c4ccccc4)C32C#N)C1 (centres undefined)
inactive: dose: 3.0 mg/kg/injection, schedule: Q04DX002 (ip), vehicle: Klucel (hydroxypropylcellulose) (HPC) 106 % of control | dose: 6.0 mg/kg/injection, schedule: Q04DX002 (ip), vehicle: Klucel (hydroxypropylcellulose) (HPC) 94 % of control and 107 % of control | dose: 12.0 mg/kg/injection, schedule: Q04DX002 (ip), vehicle: Klucel (hydroxypropylcellulose) (HPC) 100 % of control | dose: 25.0 mg/kg/injection, schedule: Q04DX002 (ip), vehicle: Klucel (hydroxypropylcellulose) (HPC) 104 % of control | dose: 50.0 mg/kg/injection, schedule: Q04DX002 (ip), vehicle: Klucel (hydroxypropylcellulose) (HPC) 114 % of control

COc1ccc(/C=N/N=C(N)N)cc1
inactive: dose: 15.0 mg/kg/injection, schedule: Q01DX Z (ip), vehicle: saline 103 % of control | dose: 30.0 mg/kg/injection, schedule: Q01DX Z (ip), vehicle: saline 100 % of control | dose: 30.0 mg/kg/injection, schedule: Q01DX Z (oral), vehicle: other 93 % of control | dose: 60.0 mg/kg/injection, schedule: Q01DX Z (ip), vehicle: saline 95 % of control | dose: 60.0 mg/kg/injection, schedule: Q01DX Z (oral), vehicle: other 100 % of control | dose: 120.0 mg/kg/injection, schedule: Q01DX Z (oral), vehicle: other 98 % of control

CNC(=O)Oc1c(C)occc1=O
inactive: dose: 75.0 mg/kg/injection, schedule: Q01DX009 (ip), vehicle: other 100 % of control | dose: 75.0 mg/kg/injection, schedule: Q01DX009 (ip), vehicle: saline with Tween-80 103 % of control | [1] 106 % of control | dose: 135.0 mg/kg/injection, schedule: Q01DX009 (ip), vehicle: other 111 % of control | dose: 150.0 mg/kg/injection, schedule: Q01DX009 (ip), vehicle: other 104 % of control | dose: 150.0 mg/kg/injection, schedule: Q01DX009 (ip), vehicle: saline with Tween-80 111 % of control | [2] 101 % of control | dose: 200.0 mg/kg/injection, schedule: Q01DX009 (ip), vehicle: other 108 % of control | dose: 300.0 mg/kg/injection, schedule: Q01DX009 (ip), vehicle: other 116 % of control | dose: 300.0 mg/kg/injection, schedule: Q01DX009 (ip), vehicle: saline with Tween-80 106 % of control | [3] 105 % of control

CCCCCC[Si](Cl)(Cl)Cl
inactive: [4] 101 % of control | dose: 150.0 mg/kg/injection, schedule: Q01DX001 (ip), vehicle: saline 91 % of control

COC(=O)CC(=O)C(Cl)C(=O)OC (centres undefined)
inactive: dose: 50.0 mg/kg/injection, schedule: Q01DX009 (ip), vehicle: saline 97 % of control | dose: 100.0 mg/kg/injection, schedule: Q01DX009 (ip), vehicle: saline 108 % of control

Cc1cc(C(O)c2ccccn2)c2ccccc2n1 (centres undefined)
inactive: [5] 102 % of control | dose: 100.0 mg/kg/injection, schedule: Q01DX001 (ip), vehicle: Klucel (hydroxypropylcellulose) (HPC) 106 % of control | [6] 96 % of control | dose: 200.0 mg/kg/injection, schedule: Q01DX001 (ip), vehicle: Klucel (hydroxypropylcellulose) (HPC) 96 % of control

CC(=O)NCCNC(C)=O
inactive: dose: 50.0 mg/kg/injection, schedule: Q01DX001 (ip), vehicle: saline 102 % of control | [1] 108 % of control | [2] 117 % of control | [3] 96 % of control

O=C(c1ccccc1)C(c1ccccc1)C(C[N+](=O)[O-])c1ccccc1 (centres undefined)
inactive: [7] 88 % of control | [8] 90 % of control | dose: 400.0 mg/kg/injection, schedule: Q01DX009 (ip), vehicle: saline with Tween-80 96 % of control

COc1cc(CC2c3cccc(Oc4ccc(C)cc4)c3CCN2C)ccc1Oc1ccc(C)cc1 (centres undefined)
inactive: dose: 100.0 mg/kg/injection, schedule: Q04DX002 (ip), vehicle: other 96 % of control | dose: 200.0 mg/kg/injection, schedule: Q04DX002 (ip), vehicle: other 100 % of control | dose: 400.0 mg/kg/injection, schedule: Q04DX002 (ip), vehicle: other 100 % of control

CC1(C)C2CCC1(CBr)C(=O)C2 (centres undefined)
inactive: dose: 200.0 mg/kg/injection, schedule: Q04DX002 (ip), vehicle: Klucel (hydroxypropylcellulose) (HPC) 100 % of control

CCCCCCC[n+]1ccc(C#N)cc1
inactive: [4] 103 % of control

CN(C)CCSC(CO)c1ccccc1 (centres undefined)
inactive: [9] 96 % of control | [10] 89 % of control | [11] 94 % of control

Oc1ccc(-c2nc3ccccc3nc2-c2ccc(O)cc2O)c(O)c1
inactive: [1] 96 % of control | [2] 93 % of control | [3] 96 % of control

C/C(C/C(C)=N/O)=N/O.C/C(C/C(C)=N/O)=N\O.[Cl][Rh][Cl]
inactive: dose: 25.0 mg/kg/injection, schedule: Q01DX009 (ip), vehicle: water 100 % of control | dose: 50.0 mg/kg/injection, schedule: Q01DX009 (ip), vehicle: water 97 % of control | dose: 100.0 mg/kg/injection, schedule: Q01DX009 (ip), vehicle: water 97 % of control | dose: 200.0 mg/kg/injection, schedule: Q01DX009 (ip), vehicle: water 100 % of control | dose: 400.0 mg/kg/injection, schedule: Q01DX009 (ip), vehicle: water 94 % of control

COC(=O)C1=C(NC(=O)Nc2ccc([N+](=O)[O-])cc2)OC(C)(C)C1c1ccc(Cl)cc1 (centres undefined)
inactive: dose: 100.0 mg/kg/injection, schedule: Q04DX003 (ip), vehicle: acetone 92 % of control | dose: 200.0 mg/kg/injection, schedule: Q04DX003 (ip), vehicle: acetone 97 % of control | dose: 400.0 mg/kg/injection, schedule: Q04DX003 (ip), vehicle: acetone 97 % of control

Sc1ccc2ccccc2c1
inactive: [6] 94 % of control | dose: 100.0 mg/kg/injection, schedule: Q04DX003 (ip), vehicle: saline 91 % of control | dose: 200.0 mg/kg/injection, schedule: Q01DX009 (ip), vehicle: Klucel (hydroxypropylcellulose) (HPC) 121 % of control | dose: 200.0 mg/kg/injection, schedule: Q04DX003 (ip), vehicle: saline 88 % of control | dose: 400.0 mg/kg/injection, schedule: Q01DX009 (ip), vehicle: Klucel (hydroxypropylcellulose) (HPC) 110 % of control | dose: 400.0 mg/kg/injection, schedule: Q04DX003 (ip), vehicle: saline 86 % of control

COc1cc(Cl)ccc1NC(=O)Oc1ccccc1C(N)=O
inactive: dose: 6.25 mg/kg/injection, schedule: Q01DX009 (ip), vehicle: Klucel (hydroxypropylcellulose) (HPC) 102 % of control | dose: 12.5 mg/kg/injection, schedule: Q01DX009 (ip), vehicle: Klucel (hydroxypropylcellulose) (HPC) 91 % of control | dose: 25.0 mg/kg/injection, schedule: Q01DX009 (ip), vehicle: Klucel (hydroxypropylcellulose) (HPC) 97 % of control | [5] 91 % of control | [6] 100 % of control

CCCCCCCCCCSCCSCCCCCCCCCC
inactive: [9] 95 % of control | dose: 100.0 mg/kg/injection, schedule: Q04DX003 (ip), vehicle: saline with Tween-80 96 % of control | [10] 101 % of control | dose: 200.0 mg/kg/injection, schedule: Q04DX003 (ip), vehicle: saline with Tween-80 93 % of control | [11] 95 % of control | dose: 400.0 mg/kg/injection, schedule: Q04DX003 (ip), vehicle: saline with Tween-80 89 % of control

Cc1c2cnccc2c(C)c2c1c1ccccc1n2CCCN
inactive: dose: 6.25 mg/kg/injection, schedule: Q04DX003 (ip), vehicle: saline 97 % of control | dose: 12.5 mg/kg/injection, schedule: Q04DX003 (ip), vehicle: saline 97 % of control | dose: 25.0 mg/kg/injection, schedule: Q01DX001 (oral), vehicle: saline 96 % of control | dose: 25.0 mg/kg/injection, schedule: Q04DX003 (ip), vehicle: saline 89 % of control | dose: 50.0 mg/kg/injection, schedule: Q01DX001 (oral), vehicle: saline 100 % of control | dose: 75.0 mg/kg/injection, schedule: Q01DX001 (oral), vehicle: saline 105 % of control | dose: 100.0 mg/kg/injection, schedule: Q01DX001 (oral), vehicle: saline 86 % of control | dose: 200.0 mg/kg/injection, schedule: Q01DX001 (oral), vehicle: saline 96 % of control

C=C(CCCC)c1ccccc1
inactive: dose: 50.0 mg/kg/injection, schedule: Q01DX009 (ip), vehicle: saline with Tween-80 102 % of control | [7] 91 % of control | [8] 94 % of control
